Measurements as given in article PMC12040169 (PLOS Biology, 2025).

Assay: in vitro
Settings: human, hela cells, % viability

Compound	viability at 28.5 h, 10 µM	viability at 28.5 h, 10 µM (bulk resorufin, single well)
O=C(O)CCCCCN1C(=O)C2CC=CCC2C1=O (stereo not drawn) [CBK286534]	82.5%	–
Cc1cc(I)ccc1S(=O)(=O)NCc1ccccn1 [CBK262155]	106%	–
CN1CCOCC(CNC(=O)c2ccc(-c3cnc(N)nc3)cc2)C1 (stereo not drawn) [CBK307119]	100%	–
CCc1c(C(=O)Nc2ccc3nc(C)cn3c2)cnc2cc(O)nn12 [CBK291178]	92.7%	–
CCOC(=O)C1(c2ccccc2)CCN(C(=O)CCC(=O)OC)CC1 [CBK132198]	–	79.8%
O=C(CCSc1nnnn1-c1ccc(C(=O)O)cc1)Nc1ccc(F)cc1 [CBK300497]	88.4%	–
CCCC(=O)N1CCCC(c2nnc(-c3cccs3)o2)C1 (stereo not drawn) [CBK283057]	83.6%	–
O=C(Nc1nccs1)c1nccnc1-c1ccc(COc2ccccc2)cc1 [CBK050839]	95.6%	–
COc1ccc(CC(=O)N2CCC(C3OCc4cc(-c5ccc(C(=O)N(C)C)cc5)ccc4O3)CC2)cc1 (stereo not drawn) [CBK149759]	88.2%	–
CC(=O)Nc1cccc(-c2ccc3c(c2)COC2(CCNCC2)O3)c1 [CBK060956]	–	94.5%
COc1ccc(-c2c(C(F)(F)F)oc3c(CN4CC(C)OC(C)C4)c(O)ccc3c2=O)cc1OC (stereo not drawn) [CBK217829]	100%	–
O=C(CCc1cccnc1)NC(Cc1ccsc1)c1nccs1 (stereo not drawn) [CBK284665]	99.5%	–
CC(C)N1CCC[C@H]1c1nc(-c2ccc(-c3cncnc3)nc2)no1 [CBK288892]	115%	–
Nn1c(CSc2ccccn2)nnc1CSc1ccccn1 [CBK266987]	90.8%	–
COc1ccc(-c2cc(=O)oc3cc(OC(C)C(=O)O)ccc23)cc1 (stereo not drawn) [CBK286696]	105%	–
Cc1ccc(CCCC(=O)N2CCc3c([nH]c4c(C)cccc34)C23CCN(Cc2ccc(F)cc2)C3)cc1 (stereo not drawn) [CBK066979]	99.2%	–
CSCCCNC(=O)N1CCN(c2ccccc2)CC1 [CBK155170]	96.5%	–
CC(=O)NCC12CC3CC(C1)CC(C(=O)O)(C3)C2 [CBK286768]	93.8%	–
CC(C)N(CCOc1nccnc1-c1cnn(C)c1)C(C)C [CBK107084]	103%	–
COCCNCCOc1c(Cl)cc(C)cc1Br [CBK265087G]	113%	–
O=C(c1cc(S(=O)(=O)NCc2ccco2)c(Cl)cc1Cl)N1CCC1 [CBK305004]	98%	–
S=c1[nH]nc(CSc2nc3ccccc3[nH]2)n1-c1ccccc1 [CBK267133]	87.3%	–
O=C(Cc1ccc(Cl)cc1Cl)NCCc1c[nH]c2ccc(Cl)cc12 [CBK159744]	104%	–

Compound	viability at 28.5 h, 10 µM	viability at 28.5 h, 10 µM (bulk resorufin, single well)
CC(=O)N1CCN(CC(O)Cn2c3ccccc3c3ccccc32)CC1 (stereo not drawn) [CBK305588]	102%	–
NC(=S)c1c(Cl)cc(C(F)(F)F)cc1Cl [CBK011349]	105%	–
S=c1[nH]nc(-c2ccc(Cl)cc2)n1-c1cccnc1 [CBK086427]	83.6%	–
Cc1cc(=O)[nH]c(N/N=C/c2ccc(Cl)cc2Cl)n1 [CBK024387]	95.8%	–
C#CCNCCCOc1ccccc1Oc1ccccc1 [CBK017707C]	94.2%	–
COC(=O)CN(c1ccc(Cl)cc1Cl)S(C)(=O)=O [CBK267654]	105%	–
O=c1c2c(nc(NCCO)n1-c1ccccc1)-c1ccccc1CC21CCCCC1 [CBK262589]	96.4%	–
CCn1cc(CN(C)C(=S)Nc2cccc(C(C)=O)c2)c(C)n1 [CBK267040]	106%	–
c1cncc(CN2CCC[C@@H]2CN2CCCC2)c1 [CBK149101C]	99.3%	–
Cc1ccc(-c2csc3ncn(Cc4ccccc4C)c(=O)c23)cc1C [CBK099921]	104%	–
Cc1cc(C)nc(N/C(=N/C(=O)Cc2ccccc2)N2CCC(C(N)=O)CC2)n1 [CBK263889]	107%	–
COc1ccc(-c2nnc(SCCC(=O)O)n2C)cc1OC [CBK268902]	98.8%	–
COc1ccc(CN(Cc2ccc(OC)cc2)Cc2ccc(S(=O)(=O)N3CCOC3=O)cc2)cc1 [CBK014818]	110%	–
COc1cc(-c2cncc(NCC(C)(C)CO)n2)cc(OC)c1OC [CBK037854]	105%	–
Cn1nc(C(Cc2ccccc2)NC(=O)c2ccco2)c2cccnc21 (stereo not drawn) [CBK285223]	97.1%	–
COc1ccc2c(c1)C(O)CC1(CCN(CC(O)c3ccc(-c4ccccc4)cc3)CC1)O2 (stereo not drawn) [CBK286398]	101%	–
CC(=O)Nc1ccc(-c2cncc(NC3CCC(O)CC3)n2)cc1 (stereo not drawn) [CBK065886]	93.9%	–
O=C(c1c(-c2ccccc2)nnc2ccccc12)N1CCN(CCO)CC1 [CBK066882]	87.3%	–
Cc1cc(CNC(=O)N2CCCC(CO)C2)no1 (stereo not drawn) [CBK156028]	94.5%	–
CCOC(=O)c1sc(NC(=O)C2CCCCC2)nc1C [CBK057893]	92.3%	–
CC(NC(=O)C1(Cn2ccnc2)CC1)c1ccccc1-n1cccn1 (stereo not drawn) [CBK307006]	94.3%	–
COc1cncc(-c2ccc(N3CCN(c4ccccc4C#N)CC3)nc2)c1 [CBK037738]	107%	–
CCCNC(=O)CN(C)Cc1cn2cccc(C)c2n1 [CBK304800]	85.2%	–

Compound	viability at 28.5 h, 10 µM	viability at 28.5 h, 10 µM (bulk resorufin, single well)
O=C(O)CCC(NC(=O)c1ccc(-c2ccc(F)cc2)s1)C(=O)O (stereo not drawn) [CBK295172]	102%	–
COCCn1c(CO)nnc1[C@H]1C[C@@H](NC(=O)c2cc(O)ccc2F)C1 [CBK307698]	90.4%	–
CN(C)CC(C)(C)CNC(=O)C1(c2ccccc2)CCCC1 [CBK149532]	107%	–
O=C(Cc1ccccc1F)N1CCC(n2cnc3cccnc32)CC1 [CBK283635]	87.7%	–
O=C(O)/C=C\C(=O)Nc1ccc(Oc2ccccc2)cc1 [CBK261216]	102%	–
OC[C@H]1CCCN1c1nc(Br)cn2ccnc12 [CBK085496]	101%	–
CCN(CC)C(=O)Cn1ncc2c3sc(C)cc3n(CC)c2c1=O [CBK284167]	99.3%	–
Cc1ccc(-c2cc(C(=O)O)c3cc4c(C(=O)O)cc(-c5ccc(C)o5)nc4cc3n2)o1 [CBK264342]	87.4%	–
Cc1nn(C)c(N2CCNCC2)c1NC(=O)c1cnccn1 [CBK050308T]	86.3%	–
CN1C2CCC1CC(OC(=O)CN1CCCCC1)C2 (stereo not drawn) [CBK278166C]	109%	–
COc1ccc(C(=O)N2CCN(c3nc4c(s3)c(C)nn4C)CC2)cc1 [CBK307457]	96%	–
O=C(c1cccnc1NCc1ccc2c(c1)OCO2)N1CCNCC1 [CBK156112T]	104%	–
COC(=O)c1sc2cc(NC(=S)NCc3ccc(S(N)(=O)=O)cc3)ccc2c1Cl [CBK267094]	81.7%	–
O=C(c1nc2ccccc2s1)C1CCN(C(=O)c2ccco2)CC1 [CBK284234]	83.6%	–
CCc1cc(=O)oc2cc(OC(=O)c3ccco3)ccc12 [CBK264657]	84.8%	–
COc1cc(C)c2c(N)c(C(C)=O)sc2n1 [CBK115336]	94%	–
Cn1c2ccccc2c2ncn(CCS)c(=O)c21 [CBK288412]	114%	–
Cc1nn(CC(=O)N(C)Cc2cnn(C)c2)c(=O)c2ccccc12 [CBK305701]	103%	–
CCNC(=O)N1CC2(CCN(CCCC#N)CC2)c2ccccc21 [CBK136970]	111%	–
O=C(Nc1ccccc1Cl)Nc1[nH]nc(O)c1Cc1c(Cl)cccc1Cl [CBK089367]	113%	–
COc1cc(/C=N/NC(=O)CCNc2n[nH]c(=O)[nH]c2=O)cc(Br)c1O [CBK263494]	88.3%	–
CCc1cccc(NC(=O)c2cnc(-c3ccc(Cl)cc3)c(-c3ccc(OC)nc3)c2)n1 [CBK036671]	93.7%	–
O=C(c1ccco1)N1CCN(c2cc(-c3cc4ccccc4o3)ncn2)CC1 [CBK091114]	102%	–

Compound	viability at 28.5 h, 10 µM	viability at 28.5 h, 10 µM (bulk resorufin, single well)
O=C(O)CC[n+]1c(/C=C/Nc2ccccc2)oc2ccccc21 [CBK260898B]	93.3%	–
COc1ccc(S(=O)(=O)N2CCCCC2)cc1NC(=O)c1ccc(-c2nnn[nH]2)cc1 [CBK297128]	93%	–
CN1CCC(CNS(=O)(=O)c2cccc3c2OCC3)CC1=O (stereo not drawn) [CBK305465]	114%	–
COc1ccc(S(=O)(=O)N(CCc2ccccc2)CC(=O)O)cc1C [CBK268505]	95%	–
O=S(=O)(NCC(Sc1ccc(F)cc1)c1ccccc1)c1ccc(Cl)cc1 (stereo not drawn) [CBK266306]	96.8%	–
O=C1CNC(=O)C2(C/C=C/C[C@H]3COCC[C@@H]3N1)CCN(CC(=O)N1CCCCC1)CC2 [CBK292137]	111%	–
O=C(NC1CCCCC1)c1cc(Br)cnc1NCCCn1ccnc1 [CBK076494]	99.7%	–
COCC(C)N(C)S(=O)(=O)c1ccc(Cl)nc1 (stereo not drawn) [CBK304813]	95.2%	–
CCCc1ccc(S(=O)(=O)Nc2c(C(=O)N(CC)CC)[nH]c3ccccc23)cc1 [CBK050111]	87.1%	–
Cc1nonc1CC(=O)N1CCC[C@@H]2[C@H]1C/C=C/Cc1ccccc1OCC(=O)N2C [CBK292062]	88.3%	–
CC(=O)NCCSc1nccc(C(F)(F)F)n1 [CBK105301]	102%	–
O=C(Cn1cnc2ccc(F)cc2c1=O)N1Cc2ccccc2C(c2ccccc2)C1 (stereo not drawn) [CBK296767]	95.1%	–
CCCOc1c(Cl)cc(/C=C2\N=C(c3ccc(OC)cc3)OC2=O)cc1OCC [CBK098846]	93.3%	–
CN(C)S(=O)(=O)Nc1ccc2c(ccn2Cc2ccccc2)c1 [CBK155765]	86.6%	–
O=C(OCc1ccccc1F)c1cccc(-c2nnc(-c3ccccc3)o2)c1 [CBK267798]	84.6%	–
CC1CCCN(CC(O)c2ccc3c(c2)CC(C)N3C(=O)C2CC2)C1 (stereo not drawn) [CBK282125]	99.2%	–
Cc1cc(N2CCCC2=O)cc(C)c1S(N)(=O)=O [CBK288458]	89.9%	–
CSc1ncc(CNC(=O)CC2CCc3ccccc32)n1C (stereo not drawn) [CBK307450]	85.9%	–
O=C(CO)N1CC2(CCN(CCC(c3ccccc3)c3ccccc3)CC2)c2ccccc21 [CBK131513]	106%	–
Cc1ccn(CCNC(=O)c2[nH]c3c(Cl)cccc3c2C)n1 [CBK282608]	97.9%	–
O=C(Cn1cccc(C(=O)NCc2ccccc2)c1=O)NC1(c2ccccc2)CCCC1 [CBK286058]	89.1%	–
